Where two headings read alike, the source gives them in different places. One block for each compound: values may come before it.
Assays:
[1] = target: T1, TRKA G667C (Homo sapiens, UniProt P04629, G667C); experiment: In vitro HTRF kinase assay, recombinant TRKA G667C; format: biochemical; details: compared to TRKA G595R
T1 construct: purchased SignalChem Biotech Inc (Richmond, BC, Canada)
Protocol: Recombinant kinases were purchased from SignalChem Biotech Inc (Richmond, BC, Canada). In vitro kinase assays were performed following the optimization of the HTRF Kinase Assay (Cisbio). […] ATP concentrations ranged from 1 to 10 µM based on internal optimization.

[2] = Brain distribution in rats (plasma, brain, CSF by LC-MS/MS); format: in vivo, Male Sprague Dawley (SD) rats; details: rat; for concentration at 0.5 h / concentration at 2 h / Kp at 0.5 h / Kp at 2 h: male, Sprague-Dawley, in vivo, po, 10 mg/kg; for Brain concentration (ng/g ± SD) / Brain/plasma ratio (%) / CSF concentration (ng/mL ± SD) / CSF/plasma ratio (%) / Plasma concentration (ng/mL ± SD): 10 mg/kg PO single dose
Protocol: All […] (PK) studies in rats were conducted according to protocols approved by the Animal Care and Use Committee at InnoCare pharmacology company in China. […] For the collection of plasma, brain tissue and cerebrospinal fluid (CSF), animals were euthanized with CO2 at 0.5 and 2 h post dosing and blood samples were in EDTA-treated microtubes. Brain tissues were homogenized and immediately flash frozen (−80 °C). Blood samples and CSF were spun at 2000 × g for 15 min at 4 °C, and plasma was removed and stored at −80 °C until liquid chromatography-tandem mass spectrometry (LC-MS/MS) analysis. The agents in rat plasma, brain homogenate or CSF samples were extracted and quantified by LC-MS/MS.

[3] = test system: IRC-I-XL; experiment: CellTiter-Glo cell viability, IRC-I-XL primary CRC cell line (LMNA-NTRK1); format: cell-based, human; details: LMNA-NTRK1 fusion, 72 h, read-out: IC50 against IRC-I-XL cell line
Description: (§1) NTRK fusion-positive colorectal cancer cell lines IRC, Kor1, and KM12 were utilized. The IRC and the KM12 cell lines were obtained from Dr. Bardelli and cultured according to the described protocols. The Kor1 cell line was obtained from Lee et al. and cultured on laminin pre-treated plates in RPMI media supplemented with 10% Fetal Bovine Serum (FBS). All cell lines were authenticated by STR and periodically screened for the presence of mycoplasma. For the mutant models, two human-derived colorectal cancer cell lines (IRC) and two mouse-derived glioma models (NLS) were used. […] Sequencing of the double mutant cell line was performed using MSK-IMPACT [25]. IRC primary cell lines were cultured with DMEM/F12 50:50 Mix (Corning) supplemented with 10% FBS. NLS Bcan-Ntrk1 Trka G598R and Bcan-Ntrk1 Trka G670C single mutants as well as double mutants NLS Bcan-Ntrk1 Trka G598R/G670A and NLS Bcan-Ntrk1 Trka G598R/G670C isogenic models were established using CRISPR/Cas9 to knock-in TRKA solvent-front and xDFG mutations into tumor cells derived from a Bcan-Ntrk1-driven glioma mouse model. Trka G598R is the mouse ortholog to human TRKA G595R while Trka G670A and Trka G670C are the mouse ortholog to human TRKA G667A and TRKA G667C, respectively. Mouse p53 ^−/^− Bcan-Ntrk1 glioma cells were plated on laminin-coated plates and cultured with Neurocult Stem Cell Basal Media with Proliferation Supplements (Stem Cell Technologies). […]
(§2) CellTiter-Glo Cell Viability Assays (Promega) and crystal violet clonogenic assays were performed on primary NTRK fusion-positive colorectal cancer cell lines, mouse Ba/F3 cell lines and isogenic mouse glioma cell lines. […] Absorbance was read at 490 nm in accordance with Promega’s protocol. […]
(§3) Statistical analyses were conducted using GraphPad Prism 9 (GraphPad Software Inc.). […] Measurements were assessed for normal distribution and homogeneity of variance using appropriate tests and were analyzed using analysis of variance or T-Tests, and nonparametric tests were used for non-normal distributed data. […]

[4] = test system: Ba/F3 LMNA-NTRK1-G667C; experiment: Ba/F3 cell viability (anti-proliferative activity); format: cell-based, mouse
Description: (§4) NTRK fusion-positive colorectal cancer cell lines IRC, Kor1, and KM12 were utilized. The IRC and the KM12 cell lines were obtained from Dr. Bardelli and cultured according to the described protocols. The Kor1 cell line was obtained from Lee et al. and cultured on laminin pre-treated plates in RPMI media supplemented with 10% Fetal Bovine Serum (FBS). All cell lines were authenticated by STR and periodically screened for the presence of mycoplasma. For the mutant models, two human-derived colorectal cancer cell lines (IRC) and two mouse-derived glioma models (NLS) were used. […] Sequencing of the double mutant cell line was performed using MSK-IMPACT [25]. IRC primary cell lines were cultured with DMEM/F12 50:50 Mix (Corning) supplemented with 10% FBS. NLS Bcan-Ntrk1 Trka G598R and Bcan-Ntrk1 Trka G670C single mutants as well as double mutants NLS Bcan-Ntrk1 Trka G598R/G670A and NLS Bcan-Ntrk1 Trka G598R/G670C isogenic models were established using CRISPR/Cas9 to knock-in TRKA solvent-front and xDFG mutations into tumor cells derived from a Bcan-Ntrk1-driven glioma mouse model. Trka G598R is the mouse ortholog to human TRKA G595R while Trka G670A and Trka G670C are the mouse ortholog to human TRKA G667A and TRKA G667C, respectively. Mouse p53 ^−/^− Bcan-Ntrk1 glioma cells were plated on laminin-coated plates and cultured with Neurocult Stem Cell Basal Media with Proliferation Supplements (Stem Cell Technologies). Ba/F3 cell lines stably expressing WT and mutant versions (i.e. G595R, G667C/A, V573M, F589L, F633L, F617L, G623R/E, G639R, G696A/C, G709C, V608D/M) of human TRKA, TRKB or TRKC were generated using either lentiviral transduction or standard transfection methods by a contract research organization (Kyinno, Beijing, China).
(§5) CellTiter-Glo Cell Viability Assays (Promega) and crystal violet clonogenic assays were performed on primary NTRK fusion-positive colorectal cancer cell lines, mouse Ba/F3 cell lines and isogenic mouse glioma cell lines. For the CellTiter-Glo assays, three biological replicates were performed, with each condition being assayed in triplicate determinations. Cells were seeded in a 96-well plate in the afternoon at optimal density. […] Plates were removed from the incubator 72 h later and CellTiter-Glo reagent was added. Absorbance was read at 490 nm in accordance with Promega’s protocol. Data is presented as a survival percentage on the y-axis (mean ± STDEV) normalized to the control DMSO-treated cells deemed 100% viable. Drug concentrations on the x-axis are represented as a base 10 logarithm (LOG). For the crystal violet assays, cells were seeded in a 24-well plate at optimal densities in the afternoon. […] Crystal violet plates were removed from the incubator 72 h later, washed with PBS, fixed with 4% paraformaldehyde for 15 min, and stained with crystal violet for 10 min. Crystal violet was washed off and plates were left to dry prior to imaging. Clonogenic assays were performed in three biological replicates.
(§6) Statistical analyses were conducted using GraphPad Prism 9 (GraphPad Software Inc.). For CellTiter-Glo assays, raw data obtained were normalized to the DMSO control utilizing Microsoft Excel. […] Data is presented as the mean ± standard deviation (STDEV) of all replicates. Measurements were assessed for normal distribution and homogeneity of variance using appropriate tests and were analyzed using analysis of variance or T-Tests, and nonparametric tests were used for non-normal distributed data. Animal studies utilized five arms with six or eight mice per arm. A Kaplan–Meier test was used to assess lifespan characteristics and for comparison between groups. Median survivals were obtained using GraphPad Prism 9. Sample size was based on statistical power analysis to ensure sufficient capability to detect a pre-specified effect size. We assumed a moderate effect size, with an alpha level set at 0.05, and a power (1-β) set at 0.80.

[5] = test system: Ba/F3 LMNA-NTRK1-G595R; experiment: Ba/F3 cell viability (anti-proliferative activity); format: cell-based, mouse
Description: as §4, §5, §6

[6] = test system: Ba/F3 LMNA-NTRK1-G667A; experiment: Ba/F3 cell viability (anti-proliferative activity); format: cell-based, mouse
Description: as §4, §5, §6

[7] = test system: Ba/F3 LMNA-NTRK1; experiment: Ba/F3 cell viability (anti-proliferative activity); format: cell-based, mouse
Description: as §4, §5, §6

[8] = test system: Ba/F3-LMNA-NTRK1-V573M; experiment: Ba/F3 cell viability (anti-proliferative activity); format: cell-based, mouse
Description: as §4, §5, §6

[9] = test system: Ba/F3 LMNA-NTRK1-A608D; experiment: Ba/F3 cell viability (anti-proliferative activity); format: cell-based, mouse
Description: as §4, §5, §6

[10] = test system: Ba/F3 LMNA-NTRK1-F589L; experiment: Ba/F3 cell viability (anti-proliferative activity); format: cell-based, mouse
Description: as §4, §5, §6

[11] = test system: Kor1; experiment: CellTiter-Glo cell viability, Kor1 primary CRC cell line (TPM3-NTRK1); format: cell-based, human; details: TPM3-NTRK1 fusion, 72 h, read-out: IC50 against Kor1 cell line
Description: as §1, §2, §3

[12] = Brain concentration (ng/g ± SD)
[13] = Plasma concentration (ng/mL ± SD)

T1 sequence (P04629 33-796 G667C): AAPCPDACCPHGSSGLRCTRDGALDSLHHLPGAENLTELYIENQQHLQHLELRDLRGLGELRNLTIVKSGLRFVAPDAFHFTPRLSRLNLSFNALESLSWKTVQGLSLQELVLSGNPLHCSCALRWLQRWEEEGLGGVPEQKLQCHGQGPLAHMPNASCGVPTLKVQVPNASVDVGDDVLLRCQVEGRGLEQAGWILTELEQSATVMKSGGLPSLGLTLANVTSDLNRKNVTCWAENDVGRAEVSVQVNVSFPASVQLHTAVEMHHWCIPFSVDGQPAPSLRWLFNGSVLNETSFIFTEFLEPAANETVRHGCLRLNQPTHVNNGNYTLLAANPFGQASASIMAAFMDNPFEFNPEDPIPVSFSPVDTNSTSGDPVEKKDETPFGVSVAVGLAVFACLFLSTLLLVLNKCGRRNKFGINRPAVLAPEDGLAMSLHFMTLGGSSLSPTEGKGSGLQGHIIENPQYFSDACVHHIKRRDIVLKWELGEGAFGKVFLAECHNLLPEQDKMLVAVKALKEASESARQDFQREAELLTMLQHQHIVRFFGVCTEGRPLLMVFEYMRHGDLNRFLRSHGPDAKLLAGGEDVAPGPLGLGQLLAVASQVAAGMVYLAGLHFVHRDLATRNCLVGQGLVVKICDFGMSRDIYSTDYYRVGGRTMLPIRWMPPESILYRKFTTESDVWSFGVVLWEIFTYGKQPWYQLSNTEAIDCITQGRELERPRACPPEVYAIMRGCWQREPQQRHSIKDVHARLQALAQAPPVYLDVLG

Compound: C[C@@H]1CCc2ncc(F)cc2[C@H]2CCCN2c2ccn3ncc(c3n2)C(=O)N1 [Selitrectinib, selitrectinib]
Potency against TRKA G667C xDFG mutant recombinant kinase [1]: potency was significantly reduced
concentration at 0.5 h [2, 12]: 93.9 ± 23.2 ng/g
concentration at 2 h [2, 12]: 85.4 ± 35.4 ng/g
Kp at 0.5 h ([2]; Brain/plasma ratio (%)): 0.0403
Kp at 2 h ([2]; Brain/plasma ratio (%)): 0.0617
concentration at 0.5 h ([2]; CSF concentration (ng/mL ± SD)): 11 ± 2.12 ng/mL
concentration at 2 h ([2]; CSF concentration (ng/mL ± SD)): 9.64 ± 6.02 ng/mL
Kp at 0.5 h ([2]; CSF/plasma ratio (%)): 0.00476
Kp at 2 h ([2]; CSF/plasma ratio (%)): 0.00648
concentration at 0.5 h [2, 13]: 2320 ± 479 ng/mL
concentration at 2 h [2, 13]: 1470 ± 854 ng/mL
IC50 ([3]; Homo sapiens): 4.6 nM
IC50 ([4]; Mus musculus, BaF3): 164 nM
IC50 ([5]; Mus musculus, BaF3): 18.1 nM
IC50 ([6]; Mus musculus, BaF3): 21.1 nM
IC50 ([7]; Mus musculus, BaF3): 3.38 nM
IC50 ([8]; Mus musculus, BaF3): 5.47 nM
IC50 ([9]; Mus musculus, BaF3): 3.16 nM
IC50 ([10]; Mus musculus, BaF3): 46.9 nM
IC50 ([11]; Homo sapiens): 13 nM

IC50 ([4]; Mus musculus, BaF3): 1370 nM
IC50 ([5]; Mus musculus, BaF3): 3200 nM
IC50 ([6]; Mus musculus, BaF3): 118 nM
IC50 ([7]; Mus musculus, BaF3): 21.8 nM
IC50 ([8]; Mus musculus, BaF3): 45.4 nM
IC50 ([9]; Mus musculus, BaF3): 19.7 nM
IC50 ([10]; Mus musculus, BaF3): 614 nM
Compound: O=C(Nc1cnn2ccc(N3CCC[C@@H]3c3cc(F)ccc3F)nc12)N1CC[C@H](O)C1 [Larotrectinib, larotrectinib]
IC50 ([3]; Homo sapiens): 13.4 nM
IC50 ([11]; Homo sapiens): 24.8 nM

Compound: zurletrectinib
Potency against TRKA G667C xDFG mutant recombinant kinase [1]: potency was significantly reduced
Brain concentration (ng/g ± SD) ([2]; 0.5 h): 44.5 ± 11.5 ng/g
Brain/plasma ratio (%) ([2]; 0.5 h): 7.17%
CSF concentration (ng/mL ± SD) ([2]; 0.5 h): 17.5 ± 6.00 ng/mL
CSF/plasma ratio (%) ([2]; 0.5 h): 2.81%
Plasma concentration (ng/mL ± SD) ([2]; 0.5 h): 616 ± 76.1 ng/mL
Brain concentration (ng/g ± SD) ([2]; 2 h): 96.9 ± 34.9 ng/g
Brain/plasma ratio (%) ([2]; 2 h): 15.5%
CSF concentration (ng/mL ± SD) ([2]; 2 h): 18.9 ± 5.91 ng/mL
CSF/plasma ratio (%) ([2]; 2 h): 3.04%
Plasma concentration (ng/mL ± SD) ([2]; 2 h): 610 ± 105 ng/mL
IC50 [3]: 0.47 nM
IC50 [4]: 38.8 nM
IC50 [5]: 11 nM
IC50 [6]: 5.27 nM
IC50 [7]: 1.2 nM
IC50 [8]: 2.33 nM
IC50 [9]: 1.18 nM
IC50 [10]: 40.8 nM
IC50 [11]: 7.2 nM

— paper PMC11300601, “Zurletrectinib is a next-generation TRK inhibitor with strong intracranial activity against NTRK fusion-positive tumours with on-target resistance to first-generation agents” (British Journal of Cancer, 2024)
